Results: patent US8946266B2, “Substituted triazole and imidazole derivatives as gamma secretase modulators” (Janssen Pharmaceuticals, Inc., priority 2009, dated 2015)
Read-outs that look alike come from different tables or passages of the source.

Tests used:
[1] = system: Aβtotal; assay: γ-secretase-modulating activity, Method 2: Aβtotal Alphalisa in supernatant of SKNBE2 cells carrying APP 695-wild type (Table 3b); assay type: cell-based; details: overnight, read-out: IC50 Aβtot
Procedure, shortened: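 SKNBE2 cells expressing wild-type APP 695 were incubated overnight at 37 °C, 5% CO2 with test compound at a range of concentrations. Aβtotal in supernatant was measured by AlphaLISA sandwich (N-terminal JRF/AβN/25 acceptor, biotinylated mid-region 4G8 donor); IC50 from 4-parameter fit of percent control versus log concentration.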

[2] = system: Aβ42; assay: γ-secretase-modulating activity, Method 2: Aβ42 Alphalisa in supernatant of SKNBE2 cells carrying APP 695-wild type (Table 3b); assay type: cell-based; details: overnight
Procedure, shortened: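 SKNBE2 cells expressing wild-type APP695 were incubated overnight at 37° C. with test compound. Secreted Aβ42 was then measured by AlphaLISA, using a C-terminal Aβ42 antibody paired with an N-terminal Aβ antibody. IC50 came from a 4-parameter fit of percent of compound-free control.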

Row | Structure (SMILES) | IC50 [1] [nM] | IC50 [2] [nM] | IC50 ([1]; Homo sapiens) [nM] | IC50 ([2]; Homo sapiens) [nM]
1 | COc1cc(-c2nc(N3CCCOc4ccccc43)n(C)n2)ccc1-n1cnc(C)c1 [Compound 327] | > 10000 | 1180 |  | 
2 | COc1cc(-c2nc3n(n2)CCC[C@@H]3c2ccc(F)cc2C)ccc1-n1cnc(C)c1 [Compound 314] | > 10000 | 288 |  | 
3 | COc1cc(-c2nc3n(n2)CCOC3c2ccccc2OC(F)(F)F)ccc1-n1cnc(C)c1 (centres unmarked) [Compound 346] | > 10000 | 95 |  | 
4 | COc1cc(-c2nc(N3CCOCC3)n(-c3ccc(F)cc3)n2)ccc1-n1cnc(C)c1 [Compound 71] |  |  | > 10000 | 1150
5 | COc1cc(-c2nc(Nc3c(F)cccc3C(F)(F)F)n(C)n2)ccc1-n1cnc(C)c1 [Compound 208] | > 10000 | 178 |  | 
6 | COc1ccc(Cl)c(Nc2nc(-c3ccc(-n4cnc(C)c4)c(OC)c3)nn2C)c1 [Compound 189] | > 10000 | 19 |  | 
7 | COc1ccccc1Nc1nc(-c2ccc(-n3cnc(C)c3)c(OC)c2)nn1C [Compound 187] | > 10000 | 178 |  | 
8 | Cc1cn(-c2ccc(-c3nc(Nc4cc(C(F)(F)F)ccc4F)n(C)n3)cc2)cn1 [Compound 207] | > 10000 | 123 |  | 
9 | COc1cc(-c2nc(-c3ccc(F)cc3)nn2C)ccc1-n1cnc(C)c1 [Compound 52] | > 10000 | 5750 |  | 
10 | COc1cc(-c2nc(N3CCC(c4cccc(C(F)(F)F)c4)C3)n(C(C)C)n2)ccc1-n1cnc(C)c1 (racemic) [Compound 74] | 6460 | 251 |  | 
11 | COCc1ccc(F)c(Nc2nc(-c3ccc(-n4cnc(C)c4)c(OC)c3)nn2C)c1 [Compound 331] | > 10000 | 56 |  | 
12 | COc1nc(-c2nc(Nc3ccc(F)c(C(F)(F)F)c3)n(C)n2)ccc1-n1cnc(C)c1 [Compound 171] | > 15000 | 42 |  | 
13 | COc1cc(-c2nc(Nc3ccc4c(c3)OC(F)(F)O4)n(C)n2)ccc1-n1cnc(C)c1 [Compound 231] | 5890 | 56 |  | 
14 | COc1cc(-c2nc3c(-c4cccc(C(F)(F)F)c4)nccn3n2)ccc1-n1cnc(C)c1 [Compound 293] | > 10000 | 2340 |  | 
15 | COc1cccc(-c2nc(-c3ccc(-n4cnc(C)c4)c(OC)c3)nn2C)c1 [Compound 36] | > 10000 | 575 |  | 
16 | Cc1cn(-c2ccc(-c3nc(Nc4cccc(C(F)(F)F)c4)n(C)n3)cc2)cn1 [Compound 206] | 8130 | 166 |  | 
17 | COc1cc(-c2nc(C(C)(O)c3cccc(C(F)(F)F)c3)n(C(C)C)n2)ccc1-n1cnc(C)c1 (centres unmarked) [Compound 89] |  |  | 7940 | 501
18 | COc1cc(-c2nc(Nc3ccc(F)cc3C#N)n(C)n2)ccc1-n1cnc(C)c1 [Compound 228] | > 10000 | 4470 |  | 
19 | COc1cc(-c2nc(Nc3c(F)ccc(Cl)c3F)n(C)n2)ccc1-n1cnc(C)c1 [Compound 122] | > 15000 | 66 |  | 
20 | COc1cc(-c2nc(Nc3ccc(F)cc3C(F)(F)F)nn2C)ccc1-n1cnc(C)c1 [Compound 16] | > 10000 | 309 |  | 
21 | COc1cc(-c2nc(Nc3ccc(Cl)cc3)n(C)n2)ccc1-n1cnc(C)c1 [Compound 108] | 7760 | 151 |  | 
22 | COc1cc(-c2nc(Nc3ccc(F)cc3Cl)n(C)n2)ccc1-n1cnc(C)c1 [Compound 109] | > 10000 | 117 |  | 

Row | Structure (SMILES) | IC50 [1] [nM] | IC50 [2] [nM] | IC50 ([1]; Homo sapiens) [nM] | IC50 ([2]; Homo sapiens) [nM]
23 | COc1cc(-c2nc(Nc3ccccc3C(C)=O)n(C)n2)ccc1-n1cnc(C)c1 [Compound 324] | > 10000 | 1320 |  | 
24 | COc1cc(-c2nc3n(n2)CCCC3c2c(F)cc(F)cc2F)ccc1-n1cnc(C)c1 (centres unmarked) [Compound 312] | > 10000 | 123 |  | 
25 | COc1cc(-c2nc(Nc3cc(F)ccc3Cl)n(C)n2)ccc1-n1cnc(C)c1 [Compound 113] | > 10000 | 60 |  | 
26 | COc1cc(-c2nc(Nc3cc(F)ccc3F)n(C)n2)ccc1-n1cnc(C)c1 [Compound 110] | > 10000 | 91 |  | 
27 | COCCn1nc(-c2ccc(-n3cnc(C)c3)c(OC)c2)nc1-c1ccccc1Cl [Compound 87] | > 10000 | 759 |  | 
28 | COc1cc(-c2nc(Nc3cc(C(=O)N(C)C)ccc3F)n(C)n2)ccc1-n1cnc(C)c1 [Compound 308] | > 10000 | 1700 |  | 
29 | COc1cc(-c2nc(Nc3cccc(C(F)(F)F)c3)n(C)n2)ccc1-n1cnc(C)n1 [Compound 273] | 10000 | 155 |  | 
30 | COc1cc(-c2nc(N3CCCC3)n(C(C)c3ccc(F)cc3)n2)ccc1-n1cnc(C)c1 (racemic) [Compound 76] | 12600 | 851 |  | 
31 | COc1cc(-c2nc3c(-c4ccccc4)nccn3n2)ccc1-n1cnc(C)c1 [Compound 292] | > 10000 | 2340 |  | 
32 | COc1cc(-c2nc(C(C)C)n(-c3ccc(F)cc3)n2)ccc1-n1cnc(C)c1 [Compound 31] | > 10000 | 447 |  | 
33 | COc1cc(-c2nc3n(n2)CCOC3c2ccc(F)cc2C)ccc1-n1cnc(C)c1 (centres unmarked) [Compound 305] | > 10000 | 646 |  | 
34 | COc1cc(-c2nc3n(n2)CCN(C(C)=O)C3c2cccc(C(F)(F)F)c2)ccc1-n1cnc(C)c1 (centres unmarked) [Compound 277] | > 10000 | 661 |  | 
35 | COc1nc(-c2nc(Nc3ccccc3F)n(C)n2)ccc1-n1cnc(C)c1 [Compound 107] | > 10000 | 148 |  | 
36 | COc1cc(-c2nc(N3CCC(c4ccccc4)CC3)n(C)n2)ccc1-n1cnc(C)c1 [Compound 77] | 8320 | 145 |  | 
37 | COc1cc(-c2nc(Nc3cccnc3OC)n(C)n2)ccc1-n1cnc(C)c1 [Compound 241] | > 10000 | 741 |  | 
38 | Cc1cn(-c2ccc(-c3nc(Nc4ccccc4C)n(C)n3)cc2OC(F)(F)F)cn1 [Compound 98] | > 10000 | 288 |  | 
39 | COc1cc(-c2nc(-c3cc(Cl)ccc3C)n[nH]2)ccc1-n1cnc(C)c1 [Compound 297] | > 10000 | 263 |  | 
40 | COc1nc(-c2nc(Nc3cc(C(F)(F)F)ccc3Cl)n(C)n2)ccc1-n1cnc(C)c1 [Compound 160] | > 10000 | 6 |  | 
41 | COc1cc(-c2nc(Sc3cccc(C(F)(F)F)c3)n(C)n2)ccc1-n1cnc(C)c1 [Compound 249] |  |  | > 10000 | 646
42 | COc1cc(-c2nc(N3CCCN(C(C)=O)CC3)n(C(C)C)n2)ccc1-n1cnc(C)c1 [Compound 301] | > 10000 | > 10000 |  | 
43 | COc1cc(-c2nc(Nc3ccc(=O)n(C)c3)n(C)n2)ccc1-n1cnc(C)c1 [Compound 242] | > 10000 | > 10000 |  | 
44 | COc1cc(-c2nc(Nc3cccc4c3OC(F)(F)O4)n(C)n2)ccc1-n1cnc(C)c1 [Compound 317] | 7940 | 34 |  | 

Row | Structure (SMILES) | IC50 [1] [nM] | IC50 [2] [nM] | IC50 ([1]; Homo sapiens) [nM] | IC50 ([2]; Homo sapiens) [nM]
45 | COc1cc(-c2nc3n(n2)CCOC3c2cc(OC(F)(F)F)ccc2F)ccc1-n1cnc(C)c1 (centres unmarked) [Compound 165] | > 10000 | 138 |  | 
46 | COc1ccc(C(F)(F)F)c(Nc2nc(-c3ccc(-n4cnc(C)c4)c(OC)c3)nn2C)c1 [Compound 218] | > 10000 | 14 |  | 
47 | Cc1cn(-c2ccc(-c3nc(Nc4cc(C(F)(F)F)ccc4F)n(C)n3)nc2C)cn1 [Compound 319] | > 10000 | 490 |  | 
48 | COc1cc(-c2nc(Nc3cccc(Cl)c3F)n(C)n2)ccc1-n1cnc(C)c1 [Compound 118] | > 10000 | 89 |  | 
49 | COc1cccc(-c2nc(-c3ccc(-n4cnc(C)c4)c(OC)c3)n(C)n2)c1 [Compound 56] | > 10000 | > 10000 |  | 
50 | COc1nc(-c2nc3n(n2)CCCC3c2ccc(F)cc2)ccc1-n1cnc(C)c1 (centres unmarked) [Compound 253] | > 10000 | 170 |  | 
51 | COc1cc(-c2nc(Nc3cccc(F)c3C(F)(F)F)n(C)n2)ccc1-n1cnc(C)c1 [Compound 155] | > 10000 | 95 |  | 
52 | COc1cc(-c2nc(Nc3cc(F)ccc3C(F)(F)F)n(C)n2)ccc1-n1cnc(C)c1 [Compound 168] | > 10000 | 71 |  | 
53 | COc1cc(-c2nc3n(n2)CCC[C@@H]3c2ccc(F)cc2C)ccc1-n1cnc(C)c1 [Compound 332] | > 10000 | 234 |  | 
54 | COc1c(-n2cnc(C)c2)ccc(-c2nc(Nc3ccccc3C)n(C)n2)c1F [Compound 318] | > 10000 | 240 |  | 
55 | COc1cc(-c2nc(Nc3cc(C(C)=O)ccc3F)n(C)n2)ccc1-n1cnc(C)c1 [Compound 223] |  |  | > 10000 | 126
56 | COc1cc(-c2nc(-c3cc(Cl)ccc3C)n(C)n2)ccc1-n1cnc(C)c1 [Compound 88] | > 10000 | 209 |  | 
57 | COc1cc(Cl)ccc1Nc1nc(-c2ccc(-n3cnc(C)c3)c(OC)c2)nn1C [Compound 188] | > 10000 | 178 |  | 
58 | COc1cc(-c2nc(Nc3ccnc(Cl)c3)n(C)n2)ccc1-n1cnc(C)c1 [Compound 234] | > 10000 | 955 |  | 
59 | COc1cc(-c2nc(Nc3cccc(Cl)c3Cl)n(C)n2)ccc1-n1cnc(C)c1 [Compound 119] | > 10000 | 54 |  | 
60 | CCC(C)n1nc(-c2ccc(-n3cnc(C)c3)c(OC)c2)nc1Nc1cc(C(F)(F)F)ccc1F (racemic) [Compound 179] | 5010 | 19 |  | 
61 | COc1cc(-c2nc3n(n2)CCCC3(O)c2ccc(F)cc2C)ccc1-n1cnc(C)c1 (centres unmarked) [Compound 269] |  |  | > 10000 | 148
62 | COc1cc(-c2nc(Nc3cc(F)c(F)cc3Cl)n(C)n2)ccc1-n1cnc(C)c1 [Compound 121] | > 10000 | 123 |  | 
63 | COc1cc(-c2nc(N3C[C@@H](C)O[C@@H](C)C3)nn2C)ccc1-n1cnc(C)c1 [Compound 64] | > 10000 | > 10000 |  | 
64 | COc1cc(-c2nc(-c3ccccc3Cl)nn2C)ccc1-n1cnc(C)c1 [Compound 23] | > 10000 | 5010 |  | 
